Data from publication PMC11468049 (Fluids and Barriers of the CNS, 2024).
Each block holds one substance with its values, some of them ahead of it.

How the values were obtained:
[1] = system: iPSC-derived pericyte-like cells; experiment: Aβ42-Hylite488 internalization by pericyte-like cells (confocal microscopy); assay type: cell-based, human; conditions: confocal microscopy (Fig. 5D)
Excerpt: Data are reported as mean ± standard deviation. […] The last column contains the merged images. Scale bars: 10 μm. […] (n = 4 wells of biological replicates per condition) **: p < 0.01 in Student’s t-test. Data are reported as mean ± standard deviation. […] Confocal microscopy images were taken at 5 μm z-slice intervals. All z-slices with Hoechst 33342 nuclear staining were aggregated for maximum intensity projection analysis. Scale bars: 10 μm.

LRP1 [2] = molecular target: T1, LRP1 (Homo sapiens, UniProt Q07954); experiment: in vitro Aβ transcytosis assay with LRP1 inhibition by RAP; assay type: cell-based; conditions: APOE3 iPSC-derived BMEC-like cells on Transwell; with and without RAP; 3 h; apical Aβ40 by ELISA; n = 8 wells (Fig. 2D)
T1 construct: endogenous in cells; host or cells: APOE3 human iPSC-derived BMEC-like cells
Protocol: (§1) Transwells (Corning, 3460) pre-coated with 200 uL 0.5 mg/mL collagen IV (Sigma, C5533) overnight at 37 °C. iPSC-derived BMEC-like cells were seeded at 1 million/cm^2 on Transwells (Corning, 3460) in hECSR media. […] This buffer helps to maintain Aβ in monomeric and denatured state. Stocks were then diluted to 500 nM in hECSR medium immediately before experiments. For experiments conditions when recombinant APOE is added, recombinant APOE2 (Peprotech, 350 − 12), APOE3 (Peprotech, 350-02) or APOE4 (Peprotech, 350-04) were added at concentration of 500 nM. In transcytosis assay, 1.5 mL of hECSR medium with Aβ and/or recombinant APOE was added to the basolateral chamber. 0.5 mL of hECSR media that is Aβ-free and APOE-free was added to the apical chamber. The Transwells were then incubated at 37 °C on a 300 rpm orbital shaker for 3 h. Media samples from the apical chamber were taken and analyzed.
(Fig. 2A). […] (Fig. 2E).

LRP1 [3] = molecular target: T1, LRP1; experiment: Aβ42-Hylite488 internalization by pericyte-like cells with LRP1 inhibition by RAP; assay type: cell-based; conditions: APOE3 pericyte-like cells; with or without RAP; confocal MFI; n = 4 (Fig. 5D, E)
Excerpt: Patients with AD commonly have amyloid deposits associated with their brain vasculature, contributing to a pathological condition known as cerebral amyloid angiopathy (CAA). Recently, a role of pericytes in CAA has been reported. We quantified deposition of Aβ42, the Aβ isoform more prone to aggregation, for pericyte-like cells expressing different APOE isoforms. […] The pericyte-like cells were then singularized, washed and fixed, but not permeabilized, for cell surface immunolabeling with an anti-Aβ antibody. […] In the same way, we then examined the impact of APOE genotype on pericyte-like cell internalization of Aβ42.
Pericyte-like cells were then singularized, washed and labeled with anti-Aβ-FITC antibody for flow cytometry quantification of cell surface-associated Aβ42. […] FSC: forward scatter. Histogram is normalized to mode. […] Data are reported as mean ± standard deviation. (D) Representative confocal microscopy images showing accumulation of intracellular Aβ42-Hylite488 with or without LRP1 inhibition by RAP in APOE3 pericyte-like cells. […] (E) Quantification of mean fluorescence intensity (MFI) of Aβ42-Hylite488 accumulated inside APOE3 pericyte-like cells by confocal microscopy. […] (G) Quantification of mean fluorescence intensity (MFI) in maximum intensity projection confocal microscopy images of Aβ42-Hylite488 accumulated inside iPSC-derived pericytes by confocal microscopy. […]

[4] = system: iPSC-derived BMEC-like cells; experiment: in vitro Aβ transcytosis assay (basolateral-to-apical, Transwell); assay type: cell-based, human; conditions: 3 h, 37 °C; for effect of recombinant APOE isoform on Aβ42 trafficking: 500 nM rhAPOE plus 500 nM Aβ42 basolateral
Protocol: as §1

[5] = APOE KO BMEC-like cells on Transwell, apical ELISA, vs no APOE control, n = 12 (Fig. 3D)

T1 sequence (Q07954 20-4544): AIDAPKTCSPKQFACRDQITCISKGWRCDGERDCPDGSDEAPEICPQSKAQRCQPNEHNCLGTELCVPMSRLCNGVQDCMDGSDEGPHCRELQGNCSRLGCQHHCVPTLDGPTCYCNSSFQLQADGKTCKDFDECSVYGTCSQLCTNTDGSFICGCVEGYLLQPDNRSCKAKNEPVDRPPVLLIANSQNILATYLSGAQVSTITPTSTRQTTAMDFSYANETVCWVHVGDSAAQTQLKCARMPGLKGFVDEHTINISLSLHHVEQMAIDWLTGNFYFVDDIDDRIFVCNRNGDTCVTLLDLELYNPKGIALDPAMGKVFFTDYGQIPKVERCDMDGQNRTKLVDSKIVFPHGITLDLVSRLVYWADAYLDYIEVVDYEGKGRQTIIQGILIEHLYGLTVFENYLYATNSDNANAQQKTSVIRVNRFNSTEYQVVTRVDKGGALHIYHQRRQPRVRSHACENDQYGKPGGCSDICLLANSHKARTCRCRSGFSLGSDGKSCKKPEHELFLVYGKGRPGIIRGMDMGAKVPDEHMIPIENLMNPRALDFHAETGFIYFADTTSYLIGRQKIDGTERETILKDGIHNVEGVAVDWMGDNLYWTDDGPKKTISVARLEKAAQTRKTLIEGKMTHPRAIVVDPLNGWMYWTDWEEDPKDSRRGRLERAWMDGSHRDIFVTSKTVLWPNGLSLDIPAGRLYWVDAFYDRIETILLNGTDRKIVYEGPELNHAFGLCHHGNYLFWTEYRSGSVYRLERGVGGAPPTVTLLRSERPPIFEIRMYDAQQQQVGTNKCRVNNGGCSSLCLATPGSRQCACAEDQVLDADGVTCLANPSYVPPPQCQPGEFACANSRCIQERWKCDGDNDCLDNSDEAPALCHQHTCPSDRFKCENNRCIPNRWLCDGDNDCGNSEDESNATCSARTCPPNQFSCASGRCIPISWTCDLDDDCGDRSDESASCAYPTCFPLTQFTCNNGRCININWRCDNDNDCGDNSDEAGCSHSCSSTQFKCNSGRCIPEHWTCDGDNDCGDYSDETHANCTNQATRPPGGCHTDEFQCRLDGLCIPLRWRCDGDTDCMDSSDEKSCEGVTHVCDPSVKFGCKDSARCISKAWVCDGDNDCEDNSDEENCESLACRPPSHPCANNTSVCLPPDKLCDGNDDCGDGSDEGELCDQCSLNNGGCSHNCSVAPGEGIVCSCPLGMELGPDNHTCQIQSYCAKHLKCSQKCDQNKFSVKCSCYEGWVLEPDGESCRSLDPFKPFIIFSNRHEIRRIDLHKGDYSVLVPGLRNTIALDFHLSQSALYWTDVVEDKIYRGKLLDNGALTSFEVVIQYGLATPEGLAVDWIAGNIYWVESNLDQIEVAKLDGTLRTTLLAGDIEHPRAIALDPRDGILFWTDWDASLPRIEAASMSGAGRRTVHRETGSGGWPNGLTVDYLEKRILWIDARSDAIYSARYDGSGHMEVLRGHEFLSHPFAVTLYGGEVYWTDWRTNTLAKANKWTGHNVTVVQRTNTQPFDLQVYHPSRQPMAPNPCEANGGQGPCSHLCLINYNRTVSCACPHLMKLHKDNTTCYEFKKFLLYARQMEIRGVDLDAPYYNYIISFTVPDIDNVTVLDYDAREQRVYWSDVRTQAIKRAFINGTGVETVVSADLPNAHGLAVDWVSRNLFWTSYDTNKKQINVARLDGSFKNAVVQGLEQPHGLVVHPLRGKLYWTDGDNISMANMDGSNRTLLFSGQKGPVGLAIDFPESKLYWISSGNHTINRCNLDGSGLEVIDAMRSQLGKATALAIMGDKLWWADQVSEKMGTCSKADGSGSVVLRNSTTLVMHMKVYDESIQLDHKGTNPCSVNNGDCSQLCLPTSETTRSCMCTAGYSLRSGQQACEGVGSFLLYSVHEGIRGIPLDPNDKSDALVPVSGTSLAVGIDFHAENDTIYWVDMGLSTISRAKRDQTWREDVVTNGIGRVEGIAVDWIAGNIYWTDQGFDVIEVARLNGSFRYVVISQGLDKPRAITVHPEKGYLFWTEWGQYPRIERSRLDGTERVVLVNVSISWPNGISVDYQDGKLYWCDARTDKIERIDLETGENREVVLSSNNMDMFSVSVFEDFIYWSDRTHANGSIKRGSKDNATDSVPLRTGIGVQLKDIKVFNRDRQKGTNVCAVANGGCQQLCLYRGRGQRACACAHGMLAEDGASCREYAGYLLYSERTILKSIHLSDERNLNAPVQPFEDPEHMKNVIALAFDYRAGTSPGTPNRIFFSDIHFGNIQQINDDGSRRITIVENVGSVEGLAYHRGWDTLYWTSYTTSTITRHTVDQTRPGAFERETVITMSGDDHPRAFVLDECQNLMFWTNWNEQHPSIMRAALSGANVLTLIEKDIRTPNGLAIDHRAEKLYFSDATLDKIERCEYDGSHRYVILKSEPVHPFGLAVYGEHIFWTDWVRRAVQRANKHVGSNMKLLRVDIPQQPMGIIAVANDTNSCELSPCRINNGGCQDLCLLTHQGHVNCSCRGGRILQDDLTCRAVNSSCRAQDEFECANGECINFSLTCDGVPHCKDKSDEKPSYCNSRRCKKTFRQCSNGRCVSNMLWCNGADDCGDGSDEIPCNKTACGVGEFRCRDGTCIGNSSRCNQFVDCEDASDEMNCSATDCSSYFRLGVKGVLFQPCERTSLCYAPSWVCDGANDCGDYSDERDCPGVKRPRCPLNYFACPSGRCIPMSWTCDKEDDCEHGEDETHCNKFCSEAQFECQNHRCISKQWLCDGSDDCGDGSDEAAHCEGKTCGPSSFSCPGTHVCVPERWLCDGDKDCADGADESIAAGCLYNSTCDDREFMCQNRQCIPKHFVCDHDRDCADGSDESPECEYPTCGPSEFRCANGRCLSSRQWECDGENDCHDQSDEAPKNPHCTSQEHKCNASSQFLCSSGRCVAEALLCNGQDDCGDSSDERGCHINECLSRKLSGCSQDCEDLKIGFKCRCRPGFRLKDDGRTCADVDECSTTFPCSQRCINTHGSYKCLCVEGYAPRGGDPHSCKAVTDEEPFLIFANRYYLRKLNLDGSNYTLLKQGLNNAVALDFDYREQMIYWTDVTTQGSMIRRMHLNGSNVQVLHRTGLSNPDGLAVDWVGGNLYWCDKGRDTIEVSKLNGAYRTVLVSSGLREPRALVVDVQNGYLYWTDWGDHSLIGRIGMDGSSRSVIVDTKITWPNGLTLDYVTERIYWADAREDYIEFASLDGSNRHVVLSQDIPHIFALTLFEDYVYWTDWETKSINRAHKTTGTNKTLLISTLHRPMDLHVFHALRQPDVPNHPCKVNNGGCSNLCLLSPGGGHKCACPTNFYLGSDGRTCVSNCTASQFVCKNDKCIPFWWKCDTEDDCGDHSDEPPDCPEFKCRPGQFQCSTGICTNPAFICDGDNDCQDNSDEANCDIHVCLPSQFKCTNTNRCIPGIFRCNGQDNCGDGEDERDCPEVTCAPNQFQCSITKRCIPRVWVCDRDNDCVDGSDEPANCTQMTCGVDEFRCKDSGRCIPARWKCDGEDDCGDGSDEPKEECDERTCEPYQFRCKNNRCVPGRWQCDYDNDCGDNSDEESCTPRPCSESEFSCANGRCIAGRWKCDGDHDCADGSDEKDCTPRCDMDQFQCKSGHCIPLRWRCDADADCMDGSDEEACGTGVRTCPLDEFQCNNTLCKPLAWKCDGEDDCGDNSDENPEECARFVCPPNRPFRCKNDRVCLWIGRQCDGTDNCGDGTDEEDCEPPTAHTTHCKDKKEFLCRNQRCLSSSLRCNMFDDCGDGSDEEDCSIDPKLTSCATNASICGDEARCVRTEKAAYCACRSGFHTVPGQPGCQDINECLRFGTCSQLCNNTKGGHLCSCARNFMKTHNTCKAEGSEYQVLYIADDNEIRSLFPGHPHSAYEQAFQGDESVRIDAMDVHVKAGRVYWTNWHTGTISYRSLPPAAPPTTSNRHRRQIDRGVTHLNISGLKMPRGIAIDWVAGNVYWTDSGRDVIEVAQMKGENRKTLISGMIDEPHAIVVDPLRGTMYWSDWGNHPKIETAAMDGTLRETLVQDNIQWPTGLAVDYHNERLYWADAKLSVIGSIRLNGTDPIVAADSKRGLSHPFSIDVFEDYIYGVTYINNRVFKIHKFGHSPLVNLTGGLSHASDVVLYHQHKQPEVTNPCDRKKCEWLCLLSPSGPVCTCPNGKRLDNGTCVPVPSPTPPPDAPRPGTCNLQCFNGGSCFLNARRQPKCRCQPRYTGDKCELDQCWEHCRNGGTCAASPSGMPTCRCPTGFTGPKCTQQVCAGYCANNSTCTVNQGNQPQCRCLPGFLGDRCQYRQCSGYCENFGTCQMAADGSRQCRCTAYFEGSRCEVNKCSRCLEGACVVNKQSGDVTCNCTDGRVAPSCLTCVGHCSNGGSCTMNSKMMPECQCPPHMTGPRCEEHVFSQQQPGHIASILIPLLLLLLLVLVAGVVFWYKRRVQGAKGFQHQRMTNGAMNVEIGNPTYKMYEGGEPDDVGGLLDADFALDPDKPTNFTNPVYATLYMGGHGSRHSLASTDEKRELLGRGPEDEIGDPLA

Substance: Aβ42-HyLite488: fluorescently labeled Aβ42
- internalization by APOE3 pericyte-like cells [1]: internalized fluorescently labeled Aβ42-HyLite488

- effect of LRP1 inhibition on Aβ42-Hylite488 internalization (LRP1 [3]): internalization was diminished
Substance: RAP: LRP1 inhibitor; competes with APOE for LRP1 binding
- effect of LRP1 inhibition on basolateral-to-apical Aβ40 transcytosis (LRP1 [2]): reduced but did not completely inhibit Aβ transcytosis

Substance: rhAPOE2: recombinant human APOE2 (Peprotech, 350 − 12)
- effect of recombinant APOE isoform on Aβ42 trafficking [4, 5]: significantly increased the trafficking of Aβ42

Substance: rhAPOE3: recombinant human APOE3 (Peprotech, 350-02)
- effect on basolateral-to-apical Aβ40 transcytosis ([4]; APOE3 iPSC-derived BMEC-like cells on Transwell, Aβ40 dosed basolateral with or without rhAPOE3, apical Aβ40 by ELISA, n = 8 wells (Fig. 2D)): facilitated Aβ40 transcytosis
- effect of recombinant APOE isoform on Aβ40 trafficking ([4]; APOE KO BMEC-like cells on Transwell, 500 nM rhAPOE plus 500 nM Aβ40 basolateral, apical ELISA, vs no APOE control, n = 12 (Fig. 3D)): significantly increased the trafficking of Aβ40

Substance: rhAPOE4: recombinant human APOE4 (Peprotech, 350-04)
- effect of recombinant APOE isoform on Aβ42 trafficking [4, 5]: does not provide any increase in Aβ40 or Aβ42 clearance
